Reference: patent US7722876B2 (priority 2002, dated 2010)
Where a SMILES comes first, the peptide text is derived from it.

test system: LLC-MK2 rhesus monkey kidney cells; conditions: not given

SMILES | toxic effects on cell viability
CSCC[C@H](NC(=O)[C@@H](NC(=O)[C@@H](NC(=O)[C@H](CCCCN)NC(=O)[C@H](C)N)C(C)C)[C@@H](C)O)C(=O)N[C@H](C(=O)N[C@@H](CS)C(=O)N[C@@H](CO)C(=O)N[C@@H](C)C(=O)N[C@@H](CO)C(N)=O)[C@@H](C)O [KM] (H-AKVTMTCSAS-NH2) | no toxic effects

test system: C.albicans UP10 cells; conditions: 6 h

SMILES | IC50
CC(C)[C@H](NC(=O)CNC(=O)[C@H](Cc1ccc(O)cc1)NC(=O)CN)C(=O)N[C@@H](CC(N)=O)C(N)=O [Heavy chain CDR-1] (H-GYGVN-NH2; N-terminus and C-terminus assumed) | 267 nM
CC[C@H](C)[C@H](NC(=O)[C@@H](N)CCSC)C(=O)N[C@@H](Cc1c[nH]c2ccccc12)C(=O)NCC(=O)N[C@@H](CC(=O)O)C(=O)NCC(=O)N[C@@H](CO)C(=O)N[C@H](C(=O)N[C@@H](CC(=O)O)C(=O)N[C@@H](Cc1ccc(O)cc1)C(=O)N[C@@H](CC(N)=O)C(=O)N[C@@H](CO)C(=O)N[C@@H](C)C(=O)N[C@@H](CC(C)C)C(N)=O)[C@@H](C)O [Heavy chain CDR-2] (H-MIWGDGSTDYNSAL-NH2; N-terminus and C-terminus assumed) | 117 nM
CSCC[C@H](NC(=O)[C@H](C)NC(=O)[C@H](Cc1ccc(O)cc1)NC(=O)[C@@H](N)CC(C)C)C(N)=O [Heavy chain CDR-3] (H-LYAM-NH2; N-terminus and C-terminus assumed) | 109 nM
CSCC[C@H](NC(=O)[C@H](Cc1ccc(O)cc1)NC(=O)[C@H](CO)NC(=O)[C@@H](NC(=O)[C@H](CO)NC(=O)[C@H](CO)NC(=O)[C@H](CO)NC(=O)[C@H](C)NC(=O)[C@@H](N)CO)C(C)C)C(=O)N[C@@H](Cc1ccc(O)cc1)C(N)=O [Light chain CDR-1] (H-SASSSVSYMY-NH2; N-terminus and C-terminus assumed) | 692 nM
CC(C)C[C@H](NC(=O)[C@H](CC(N)=O)NC(=O)[C@H](CO)NC(=O)[C@@H](NC(=O)[C@@H](N)CC(C)C)[C@@H](C)O)C(=O)N[C@@H](C)C(=O)N[C@@H](CO)C(N)=O [Light chain CDR-2] (H-LTSNLAS-NH2; N-terminus and C-terminus assumed) | 234 nM
NC(=O)CC[C@H](NC(=O)[C@@H](N)CCC(N)=O)C(=O)N[C@@H](Cc1c[nH]c2ccccc12)C(=O)N[C@@H](CO)C(=O)N[C@@H](CO)C(=O)N[C@@H](CC(N)=O)C(=O)N1CCC[C@H]1C(=O)N[C@@H](Cc1ccc(O)cc1)C(N)=O [Light chain CDR-3] (H-QQWSSNPY-NH2; N-terminus and C-terminus assumed) | 200 nM
CSCC[C@H](NC(=O)[C@@H](NC(=O)[C@@H](NC(=O)[C@H](CCCCN)NC(=O)[C@H](C)N)C(C)C)[C@@H](C)O)C(=O)N[C@H](C(=O)N[C@@H](CS)C(=O)N[C@@H](CO)C(=O)N[C@@H](C)C(N)=O)[C@@H](C)O [SEQ ID 14] (H-AKVTMTCSA-NH2; N-terminus and C-terminus assumed) | 50000 nM
CSCC[C@H](NC(=O)[C@@H](NC(=O)[C@@H](NC(=O)[C@H](CCCCN)NC(=O)[C@H](C)N)C(C)C)[C@@H](C)O)C(=O)N[C@H](C(=O)N[C@@H](CS)C(=O)N[C@@H](CO)C(N)=O)[C@@H](C)O [SEQ ID 15] (H-AKVTMTCS-NH2; N-terminus and C-terminus assumed) | 23000 nM
CSCC[C@H](NC(=O)[C@@H](NC(=O)[C@@H](NC(=O)[C@H](CCCCN)NC(=O)[C@H](C)N)C(C)C)[C@@H](C)O)C(=O)N[C@H](C(=O)N[C@@H](CS)C(N)=O)[C@@H](C)O [SEQ ID 16] (H-AKVTMTC-NH2; N-terminus and C-terminus assumed) | 600 nM
CSCC[C@H](NC(=O)[C@@H](NC(=O)[C@@H](NC(=O)[C@H](CCCCN)NC(=O)[C@H](C)N)C(C)C)[C@@H](C)O)C(=O)N[C@H](C(N)=O)[C@@H](C)O [SEQ ID 17] (H-AKVTMT-NH2; N-terminus and C-terminus assumed) | 730000 nM
CSCC[C@H](NC(=O)[C@@H](NC(=O)[C@@H](NC(=O)[C@H](CCCCN)NC(=O)[C@H](C)N)C(C)C)[C@@H](C)O)C(N)=O [SEQ ID 18] (H-AKVTM-NH2; N-terminus and C-terminus assumed) | 25000 nM
CC(C)[C@H](NC(=O)[C@H](CCCCN)NC(=O)[C@H](C)N)C(=O)N[C@H](C(N)=O)[C@@H](C)O [SEQ ID 19] (H-AKVT-NH2; N-terminus and C-terminus assumed) | 710000 nM
CC(C)[C@H](NC(=O)[C@H](CCCCN)NC(=O)[C@H](C)N)C(N)=O [SEQ ID 20] (H-Ala-Lys-Val-NH2; N-terminus and C-terminus assumed) | 10000 nM

test system: fluconazole-resistant (AIDS 68) C.albicans; format: in vivo, Candida albicans; conditions: day 0; rats; 100 μg fluconazole at 1, 24, 48 h

SMILES | C. albicans vaginal CFU (×10^3) (±SD)
OC(Cn1cncn1)(Cn1cncn1)c1ccc(F)cc1F [fluconazole] | >100 ×10^3

same assay, conditions: day 7; rats; 100 μg fluconazole at 1, 24, 48 h

SMILES | C. albicans vaginal CFU (×10^3) (±SD)
OC(Cn1cncn1)(Cn1cncn1)c1ccc(F)cc1F [fluconazole] | 64 ± 6 ×10^3

same assay, conditions: day 14; rats; 100 μg fluconazole at 1, 24, 48 h

SMILES | C. albicans vaginal CFU (×10^3) (±SD)
OC(Cn1cncn1)(Cn1cncn1)c1ccc(F)cc1F [fluconazole] | 48 ± 3 ×10^3

same assay, conditions: day 28; rats; 100 μg fluconazole at 1, 24, 48 h

SMILES | C. albicans vaginal CFU (×10^3) (±SD)
OC(Cn1cncn1)(Cn1cncn1)c1ccc(F)cc1F [fluconazole] | 12 ± 4 ×10^3
